# Assay results as given in patent publication US20230167075A1, “INTERLEUKIN INHIBITORS” (UNIVERSITY OF GREENWICH, priority 2020, published 2023).
# How the values were obtained:
# Assay type in all cases: cell-based, human
# [1] = tested on: interleukin (IL)-17A; assay: Inhibition of secreted Interleukin-17A in PMA/ionomycin-stimulated PBMCs (cytometric bead array); conditions: PBMCs stimulated with PMA/ionomycin, 24 hours
# Method: (§1) The compounds of formulae (I), (IA) and (IB) may be investigated for inhibition of pro-inflammatory cytokines Interleukin (IL)-1p, 2, 4, 6, 8, 13 and 17A, in peripheral blood mononuclear cells (PBMCs) isolated from fresh human buffy coats by centrifugation on Lymphoprep™ (Stemcell Technologies). All human cells are grown in cell culture medium RPMI-1640 supplemented with 1% penicillin/streptomycin and 5% heat inactivated fetal bovine serum.
# (§2) PBMCs stimulated with PMA/ionomycin are incubated for 24 hours containing the compounds under investigation, reconstituted in DMSO. The secreted levels of Interleukin-17A are measured in the cell culture supernatant using a cytometric bead array and the cell viability is quantified using Trypan blue.
# [2] = tested on: interleukin (IL)-6; assay: Inhibition of Interleukin-6 in PBMCs
# Method: as §1
# [3] = tested on: Interleukin (IL)-1 beta; assay: Inhibition of secreted Interleukin-1 beta in LPS-stimulated PBMCs (cytometric bead array); conditions: PBMCs stimulated with LPS, 24 hours
# Method: as §1
# as §2, with “LPS (Salmonella enterica serotype typhimurium)” for “PMA/ionomycin”, “dimethyl sulfoxide (DMSO).” for “DMSO.”, “Interleukin-1(3 is” for “Interleukin-17A are”
# [4] = tested on: interleukin (IL)-8; assay: Inhibition of Interleukin-8 in PBMCs
# Method: as §1
# [5] = tested on: CD4-positive T cells; assay: Inhibition of cell viability in the IL-2/IL-4 release assays
# Method: (§3) CD4-positive T cells stimulated with beads coated with antibodies against CD2, CD3 and CD28 are incubated for 48 hours containing the compounds under investigation, reconstituted in DMSO. The secreted levels of Interleukin-2, 4 and 13 are measured in the cell culture supernatant using a cytometric bead array and the cell viability is measured using an MTT (3-(4,5-dimethylthiazol-2-yl)-2,5-diphenyltetrazolium bromide) assay.
# (§4) Secreted IL-4 levels may be measured using electrochemiluminescence (MSD kits, Meso Scale Discovery), while secreted IL-2 levels may be measured using proximity homogenous time-resolved fluorescence (HTRF) and the amount of living cells may be measured by addition of resazurin (PrestoBlue®).
# [6] = as above; conditions: human; read-out: Max Effect, Inhibition of cell viability
# Method: as §3, §4
# [7] = tested on: IL-4; assay: Inhibition of IL-4 release, stimulated CD4-positive T cells
# Method: (§5) The compounds of formulae (I), (IA) and (IB) may be investigated for inhibition of pro-inflammatory cytokines Interleukin-2, 4 and 13 in human CD4-positive T cells isolated from fresh isolated PBMCS using a CD4-positive T cell isolation kit.
# as §3, §4
# [8] = tested on: IL-2; assay: Inhibition of IL-2 release, stimulated CD4-positive T cells
# Method: as §5, §3, §4
SMILES,inhibition of Interleukin IL-17A [1],inhibition of Interleukin IL-6 [2],inhibition of Interleukin IL-1 beta [3],inhibition of Interleukin IL-8 [4],inhibition of cell viability (in words) [5],cytotoxicity at 48 h [6] [%],level of inhibition of IL-4 (in words) [7],level of inhibition of IL-2 (in words) [8]
"Nc1nnc(-c2sc(Cl)c(Cl)c2Cl)c(N)n1 [3,5-diamino-6-[2-(3,4,5-trichlorothienyl)]-1,2,4-triazine]",inhibitory effect,inhibitory effect,inhibitory effect,inhibitory effect,–,–,–,–
"Nc1nnc(C(c2ccccc2)c2ccccc2)c(N)n1 [3,5-Diamino-6-(diphenylmethyl)-1,2,4-triazine]",high inhibition,moderate inhibition,moderate inhibition,high inhibition,without significant inhibition,28,good level of inhibition,good level of inhibition
